Assay in all cases: NCI-60 cell line screen, 48 h
Experiment [1] relates to ACHN renal.
In experiment [2] the test system is EKVX NSCLC.
Experiment [3] concerns HL-60(TB) leukemia.
In experiment [4] the test system is HOP-62 NSCLC.
The test system of experiment [5] is M14 melanoma.
Experiment [6] concerns MALME-3M melanoma.
Experiment [7] deals with MOLT-4 leukemia.
Experiment [8] deals with SF-539 CNS.
The test system of experiment [9] is SN12C renal.
Experiment [10] has as its system SNB-75 CNS.

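Interpolation was linear, between the two tested concentrations surrounding the appropriate level; five concentrations were tested over 48 hours in 96-well plates. The concentration for 50% growth inhibition is given as GI50. At the TGI there is no net growth.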

Take `COc1ccc(-c2nn(C(=O)c3cc(OC)c(OC)c(OC)c3)c3cc(N)ccc23)cc1`: the GI50 in [1] is under 0.0151 µM; in [2] it was under 0.0187 µM; in experiment [3], under 0.0121 µM; in [4], under 0.0153 µM; in experiment [5], under 0.0118 µM; in experiment [6], 2.03 µM. Further, the GI50 in experiment [7] is 0.0382 µM; in experiment [8], under 0.01 µM; in experiment [9], under 0.0162 µM; in experiment [10] it was under 0.0122 µM. The TGI in experiment [1] is 2.67 µM; in experiment [2], 51.3 µM; in [3] it was under 0.022 µM; in experiment [4] it was 6.33 µM; in experiment [5] it was 19.5 µM; in experiment [6] it was 14.8 µM. Moreover, the TGI in [7] is 23.7 µM; in [8], 1.24 µM; in [9], 10.8 µM; in experiment [10], 7.76 µM.

For `O=P1(NCCCl)OCCC(OO)N1CCCl` (stereo not drawn), the TGI in [1] is 33 µM; in experiment [2], over 100 µM; in [3] it was over 51.9 µM; in [4], over 100 µM; in experiment [5], over 57 µM; in experiment [6] it was 31.7 µM. Also, the TGI in experiment [7] was over 83.4 µM; in experiment [8] it was 33 µM; in [9], over 100 µM; in experiment [10], 97 µM.

Regarding `COc1cc(Cl)c(C)cc1NC(=O)c1cc2ccccc2cc1O`, the GI50 in [1] is 2.67 µM; in [2] it was 1.65 µM; in [3], 1.89 µM; in [4], 2.37 µM; in [5] it was 2.85 µM; in [6] it was 1.69 µM. Further, the GI50 in [7] was 2.85 µM; in [8] it was 2.81 µM; in experiment [9], 1.68 µM; in experiment [10] it was 2.4 µM. Moreover, the TGI in experiment [1] amounted to 11.4 µM; in [2] it was 9.03 µM; in [3], 6.92 µM; in experiment [4] it was 10.3 µM; in experiment [5], 9.53 µM; in [6], 10 µM. In addition, the TGI was 14 µM in experiment [7], 10.4 µM in [8], 10.1 µM in experiment [9] and 9.37 µM in [10].

Consider `N=C(N)c1ccc(-c2ccc(-c3ccccc3)o2)o1`, for which the GI50 in experiment [1] is 2.56 µM; in experiment [2], 2.34 µM; in experiment [3] it was 2.18 µM; in experiment [4], 3.59 µM; in experiment [5] it was 1.62 µM; in experiment [6] it was 1.75 µM. The GI50 is 3.31 µM in experiment [7], 1.95 µM in [8], 3.12 µM in experiment [9] and 1.6 µM in experiment [10]. Also, the TGI in experiment [1] worked out at 6.73 µM; in experiment [2] it was 9.37 µM; in experiment [3], 5.2 µM; in experiment [4], 15.3 µM; in experiment [5], 3.4 µM; in experiment [6] it was 3.53 µM. The TGI was found to be 10.2 µM in [7], 4.43 µM in experiment [8], 10.3 µM in [9] and 4.12 µM in [10].

Consider `O=C1/C=C/[C@@H](O)[C@@H]2C[C@@H](O)C[C@H]2/C=C/CCCCO1`, for which the GI50 in [1] was 0.43 µM; in [2], 0.519 µM; in [3], 1.61 µM; in [4], 2.23 µM; in experiment [5], 0.336 µM; in experiment [6], 0.321 µM. Besides, the GI50 was 1.4 µM in [7], 0.383 µM in [8], 0.954 µM in experiment [9] and 0.17 µM in [10]. Moreover, the TGI is over 23.6 µM in experiment [1]; over 21.4 µM in experiment [2]; over 100 µM in experiment [4]; over 100 µM in experiment [5]; 3.24 µM in experiment [6]; over 100 µM in experiment [8]. The TGI in experiment [9] and in experiment [10] was over 100 µM throughout.

Take `COc1cc(C2C(C(=O)Nc3ccccc3C)=C(C)NC(C)=C2C(=O)Nc2ccccc2C)ccc1O`: the TGI in [1], in experiment [2], in [3], in experiment [4], in experiment [5] and in experiment [6] was over 100 µM in each case. For the same molecule, the TGI in experiment [7], in [8], in experiment [9] and in experiment [10] was over 100 µM each time.

Turning to `Nc1c(S(=O)(=O)O)cc2c(c1Cl)C(=O)c1ccccc1C2=O`, the GI50 in experiment [1], in [2], in experiment [3], in [4], in experiment [5] and in experiment [6] was over 100 µM throughout. Further, the GI50 in [7], in [8], in experiment [9] and in experiment [10] was over 100 µM throughout. Moreover, the TGI in experiment [1], in experiment [2], in [3], in experiment [4], in experiment [5] and in experiment [6] was over 100 µM throughout. The TGI in experiment [7], in experiment [8], in [9] and in experiment [10] was over 100 µM throughout.

Consider `COc1cc(Nc2nccc(-c3cnn4ncccc34)n2)cc(OC)c1`, for which the GI50 in [1] is 0.0565 µM; in [2], 0.113 µM; in [3] it was 0.0362 µM; in [4] it was 0.0868 µM; in [5], 0.0891 µM; in experiment [6] it was 0.132 µM. For the same molecule, the GI50 was 0.0516 µM in experiment [7], 0.0637 µM in experiment [8], 0.0942 µM in [9] and 0.0754 µM in [10]. For the same molecule, the TGI came out at 4.16 µM in experiment [1]; 4.96 µM in experiment [2]; 0.12 µM in experiment [3]; 0.651 µM in experiment [4]; 0.838 µM in [5]; 1.26 µM in experiment [6]. The TGI is 0.165 µM in experiment [7], 0.257 µM in experiment [8], over 25 µM in [9] and 0.308 µM in [10].

The record behind these values is PubChem BioAssay (NCI).
